Data taken from patent US12084473B2, “β-D-2′-deoxy-2′-α-fluoro-2′-β-C-substituted-2-modified-N6-substituted purine nucleotides for HCV treatment” (Atea Pharmaceuticals, Inc., priority 2015, dated 2024).

Columns and labels:
human DNA polymerase α = target: T1, human DNA polymerase α (Homo sapiens, UniProt P09884); experiment: Human DNA Polymerase Assays; type: biochemical; conditions: at concentrations up to 100 μM
T1 construct: purchased CHIMERx
T1 sequence (P09884 1-1462): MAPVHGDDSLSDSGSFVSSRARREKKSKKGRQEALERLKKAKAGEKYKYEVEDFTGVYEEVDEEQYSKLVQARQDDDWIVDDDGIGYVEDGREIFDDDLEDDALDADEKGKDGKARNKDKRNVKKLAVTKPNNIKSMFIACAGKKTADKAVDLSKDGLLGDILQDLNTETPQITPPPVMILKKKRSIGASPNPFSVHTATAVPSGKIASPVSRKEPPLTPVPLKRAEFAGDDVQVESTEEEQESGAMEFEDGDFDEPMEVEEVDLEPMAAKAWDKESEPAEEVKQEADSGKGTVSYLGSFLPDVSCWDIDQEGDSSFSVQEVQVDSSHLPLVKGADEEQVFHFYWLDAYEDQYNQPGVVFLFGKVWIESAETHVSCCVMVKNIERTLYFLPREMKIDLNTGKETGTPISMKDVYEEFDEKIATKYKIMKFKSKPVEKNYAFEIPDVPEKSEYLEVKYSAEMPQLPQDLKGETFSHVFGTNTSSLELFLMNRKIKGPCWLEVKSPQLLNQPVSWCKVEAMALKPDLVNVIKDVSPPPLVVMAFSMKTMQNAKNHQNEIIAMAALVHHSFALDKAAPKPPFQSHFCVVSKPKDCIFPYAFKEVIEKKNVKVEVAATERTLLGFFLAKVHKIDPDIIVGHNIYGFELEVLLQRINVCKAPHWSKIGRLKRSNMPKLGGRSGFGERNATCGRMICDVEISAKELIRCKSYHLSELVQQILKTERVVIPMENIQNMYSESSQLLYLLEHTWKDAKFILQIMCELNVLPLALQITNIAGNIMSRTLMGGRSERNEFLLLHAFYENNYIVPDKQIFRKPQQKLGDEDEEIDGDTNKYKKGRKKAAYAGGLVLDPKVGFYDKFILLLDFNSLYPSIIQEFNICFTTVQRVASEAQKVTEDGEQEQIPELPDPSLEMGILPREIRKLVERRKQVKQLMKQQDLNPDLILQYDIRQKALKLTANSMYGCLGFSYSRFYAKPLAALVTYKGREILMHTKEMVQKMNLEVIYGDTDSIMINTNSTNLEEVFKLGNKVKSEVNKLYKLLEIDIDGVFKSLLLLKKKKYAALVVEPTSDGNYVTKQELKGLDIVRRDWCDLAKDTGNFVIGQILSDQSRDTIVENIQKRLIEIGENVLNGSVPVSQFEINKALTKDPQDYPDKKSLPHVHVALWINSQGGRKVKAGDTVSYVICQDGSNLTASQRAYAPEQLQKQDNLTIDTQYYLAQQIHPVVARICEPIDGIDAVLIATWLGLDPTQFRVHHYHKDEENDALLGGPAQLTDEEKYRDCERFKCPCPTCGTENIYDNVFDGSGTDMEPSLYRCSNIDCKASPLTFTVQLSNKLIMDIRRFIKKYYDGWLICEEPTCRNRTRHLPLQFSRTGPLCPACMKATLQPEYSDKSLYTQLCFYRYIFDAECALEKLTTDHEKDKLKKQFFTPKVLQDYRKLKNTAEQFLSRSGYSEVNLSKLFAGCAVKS
Description: Inhibition of human DNA polymerases α, β and γ (CHIMERx) was determined in triplicate in reaction mixtures of serially diluted TA, 0.05 mM dCTP, dTTP, and dATP, 10 μCi [^32P]-α-dGTP (800 Ci/mmol), 20 μg activated calf thymus DNA and additional reagents specific for each polymerase.

iPS Cardiomyocytes = experiment: iPS Cardiomyocyte Assay; type: cell-based, human; conditions: 3 days, XTT
Description: iPS Cardiomyocytes (Cellular Dynamics) were seeded in microliter plates at 1.5×10^4 cells per well. After 48-hr incubation, cells were washed and maintenance medium containing serially diluted TA was added in triplicate. After incubating for an additional 3 days, cell viability was measured by staining with XTT and CC50 values were calculated.

host cell lines = experiment: Toxicity in host cell lines; type: cell-based; conditions: at concentrations up to 100 μM
human hepatocytes = experiment: Metabolic studies in primary hepatocytes; type: in vitro ADME; conditions: 10 μM, 2-24 hr
Description: The metabolism of compounds 25, 27 and 5-2, at a concentration of 10 μM, were investigated in fresh primary cultures of human, dog and mouse hepatocytes. Plated hepatocytes from humans (XenoTech, mixed gender, pooled from 10 donors), male Beagle dog (BioreclamationIVT), and male ICR/CD-1 mice (BioreclamationIVT, 8 donors) in 6-well plates with matrigel overlay were incubated in singlet with 10 μM TA. After 2, 4, 6, 8 or 24 hr, intracellular levels of nucleotide prodrugs and their potential metabolites (prodrugs, monophosphates, triphosphates and nucleosides) were quantitated by LC-MS/MS. Concentrations below the lower limit of quantitation (1.5 pmol/10^6 cells for prodrugs, monophosphates and nucleosides and 12 pmol/10^6 cells for triphosphates) were extrapolated from the standard curves.

[1] = test system: human bone marrow progenitor cells; experiment: Human Bone Marrow Progenitor Cell Assay; type: cell-based; conditions: 14-day incubations, colony counts
Description: Fresh human bone marrow progenitor cells (Invitrogen) suspended in either BFU-E or GM-CSF-specific culture medium were added, at 10^5 cells/well, to triplicate serial dilutions of TA in 6-well plates. After 14-day incubations, colony counts were used to determine CC50 values. BFU-E colonies were confirmed using the benzidene technique.

| SMILES | inhibition of human DNA polymerase α (human DNA polymerase α) | cytotoxicity against iPS cardiomyocytes in vitro (iPS Cardiomyocytes) | toxicity in all host cell lines (host cell lines) | predominant metabolite observed in cultured human hepatocytes (human hepatocytes) | cytotoxicity against bone marrow stem cells in vitro [1] |
| --- | --- | --- | --- | --- | --- |
| CC(C)OC(=O)[C@H](C)N[P@](=O)(OCC1O[C@@H](n2cnc3c(N(C)C4CC4)nc(N)nc32)[C@](C)(F)[C@@H]1O)Oc1ccccc1 (stereo partly drawn) [Compound 27, isopropyl ((((S)-(2R,3R,4R,5R)-5-(2-amino-6-(methylcyclopropanamino)-9H-purin-9-yl)-4-fluoro-3-hydroxy-4-methyltetrahydrofuran-2-yl)methoxy)-phenoxy-phosphoryl)-L-alaninate] | No inhibition | no cytotoxicity | no toxicity | β-D-2′-deoxy-2′-α-fluoro-2′-β-methyl-guanine triphosphate | no cytotoxicity |
| CC(C)OC(=O)[C@H](C)N[P@](=O)(OCC1O[C@@H](n2cnc3c(N(C)C)nc(N)nc32)[C@](C)(F)[C@@H]1O)Oc1ccccc1 (stereo partly drawn) [Compound 25, isopropyl ((((S)-(2R,3R,4R,5R)-5-(2-amino-6-(dimethylamino)-9H-purin-9-yl)-4-fluoro-3-hydroxy-4-methyltetrahydrofuran-2-yl)methoxy)-phenoxy-phosphoryl)-L-alaninate] | No inhibition | no cytotoxicity | no toxicity | β-D-2′-deoxy-2′-α-fluoro-2′-β-methyl-guanine triphosphate | no cytotoxicity |
| CNc1nc(N)nc2c1ncn2[C@@H]1OC(CO[P@@](=O)(N[C@@H](C)C(=O)OC(C)C)Oc2ccccc2)[C@@H](O)[C@@]1(C)F (stereo partly shown) [Compound 5-2] |  | no cytotoxicity |  | β-D-2′-deoxy-2′-α-fluoro-2′-β-methyl-guanine triphosphate | no cytotoxicity |
